These results are taken from patent US20150057246A1, “SILYL-CONTAINING HETEROCYCLIC COMPOUNDS AND METHODS OF USE THEREOF FOR THE TREATMENT OF VIRAL DISEASES” (priority 2012, published 2015).

Structures are written as SMILES. A value given as a limit tells only on which side of the number the result lay.

One experiment concerns HCV 1a Y93H replicon. In words: Cell-based HCV replicon assay (TaqMan), 1a Y93H mutant replicon. As to conditions: Hepatitis C virus, 72 h, read-out: 1a Y93H EC90, HCV 1a Y93H mutant replicon cells, replicon RNA by real time PCR, day 3; EC90 = concentration for ΔCT=3.2 over baseline. As to the method:
(§1) Measurement of inhibition by compounds of the present invention was performed using the HCV replicon system. Several different replicons encoding different HCV genotypes or mutations were used. In addition, potency measurements were made using different formats of the replicon assay, including different ways of measurements and different plating formats. See Jan M. Vrolijk et al., A replicons-based bioassay for the measurement of interferons in patients with chronic hepatitis C, 110 J. VIROLOGICAL METHODS 201 (2003); Steven S. Carroll et al., Inhibition of Hepatitis C Virus RNA Replication by 2′-Modified Nucleoside Analogs, 278(14) J. BIOLOGICAL CHEMISTRY 11979 (2003). However, the underlying principles are common to all of these determinations, and are outlined below.
(§2) TaqMan®-Based Assay Protocol:
(§3) Compounds of the present invention were assayed for cell-based anti-HCV activity using the following protocol. Replicon cells were seeded at 5000 cells/well in 96-well collagen I-coated Nunc plates in the presence of the test compound. Various concentrations of test compound, typically in 10 serial 2-fold dilutions, were added to the assay mixture, with the starting concentration ranging from 250 μM to 1 μM. The final concentration of DMSO was 0.5%, fetal bovine serum was 5%, in the assay media. Cells were harvested on day 3 by the addition of 1× cell lysis buffer (Ambion cat #8721). The replicon RNA level was measured using real time PCR (TaqMan® assay). The amplicon was located in 5B. The PCR primers were: 5B.2F, ATGGACAGGCGCCCTGA (SEQ. ID NO. 1); 5B.2R, […] (SEQ. ID NO. 2); the probe sequence was FAM-labeled CACGCCATGCGCTGCGG (SEQ. ID NO. 3). GAPDH RNA was used as endogenous control and was amplified in the same reaction as NS5B (multiplex PCR) using primers and VIC-labeled probe recommended by the manufacturer (PE Applied Biosystem). The real-time […] reactions were run on ABI PRISM 7900HT Sequence Detection System using the following program: 48° C. for 30 minutes, 95° C. for 10 minutes, 40 cycles of 95° C. for 15 sec, 60° C. for 1 minute. The ΔCT values (CT5B-CTGAPDH) were plotted against the concentration of test compound and fitted to the sigmoid dose-response model using XLfit4 (MDL). EC50 was defined as the concentration of inhibitor necessary to achieve ΔCT=1 over the projected baseline; EC90 the concentration necessary to achieve ΔCT=3.2 over the baseline. Alternatively, to quantitate the absolute amount of replicon RNA, a standard curve was established by including serially diluted T7 transcripts of replicon RNA in the Taqman assay. All TaqMan® reagents were from PE Applied Biosystems. Such an assay procedure was described in detail in e.g. Malcolm et al., Antimicrobial Agents and Chemotherapy 50: 1013-1020 (2006).
(§4) HCV replicon EC50 assay data for various replicons and mutants was calculated for selected compounds of the present invention using this method and is provided in the tables above herein.

The next experiment relates to HCV 2b replicon. The experiment in a line: Cell-based HCV replicon assay (TaqMan), genotype 2b replicon. As to conditions: Hepatitis C virus, 72 h, read-out: 2b EC90, HCV genotype 2b replicon cells, replicon RNA by real time PCR, day 3; EC90 = concentration for ΔCT=3.2 over baseline. As for the experimental part: as §1, §2, §3, §4
In general terms: A replicon is a self-replicating genome or part of one, used to study replication in cells.

The test system of another experiment is HCV 1a replicon. In words: Cell-based HCV replicon assay (TaqMan), genotype 1a replicon. To be noted: Hepatitis C virus, 72 h, HCV genotype 1a replicon cells, replicon RNA by real time PCR, day 3; EC90 = concentration for ΔCT=3.2 over baseline. As to the method: as §1, §2, §3, §4

The term EC90 denotes the point of the concentration-response curve where the effect stands at 90%. `COC(=O)N[C@H](C(=O)N1C[Si](C)(C)C[C@H]1c1ncc(-c2ccc(-c3ccc4c(ccc5nc([C@@H]6CCCN6C(=O)[C@@H](NC(=O)OC)C6CCCOCC6)[nH]c54)c3)cc2)[nH]1)C1CCCOCC1` (stereo partly drawn) [Compound 52]: the EC90 is over 1000 nM with HCV 1a Y93H replicon, 37 nM in the experiment with HCV 2b replicon and 2.3 nM in the experiment on HCV 1a replicon.
The corresponding values for `COC(=O)N[C@@H](C(=O)N1C[Si](C)(C)C[C@H]1c1ncc(-c2ccc(-c3ccc4c(ccc5nc([C@@H]6CCCN6C(=O)[C@H](NC(=O)OC)c6ccccc6)[nH]c54)c3)cc2)[nH]1)c1ccccc1` [Compound 53] are over 1000 nM, over 1000 nM and 7.27 nM.
The corresponding values for `COC(=O)N1CCC[C@H]1C(=O)N1C[Si](C)(C)C[C@H]1c1ncc(-c2ccc(-c3ccc4c(ccc5nc([C@@H]6CCCN6C(=O)[C@@H]6CCCN6C(=O)OC)[nH]c54)c3)cc2)[nH]1` [Compound 54] are over 1000 nM, over 1000 nM and over 1000 nM.
The corresponding values for `COC(=O)N[C@H](C(=O)N1CCC[C@H]1c1ncc(-c2ccc(-c3ccc4c(ccc5nc([C@@H]6C[Si](C)(C)CN6C(=O)[C@@H](NC(=O)OC)C6CCCC6)[nH]c54)c3)cc2)[nH]1)C(C)C` [Compound 58] are 580 nM, 265 nM and 0.45 nM.
On to `CC[C@H](C)[C@H](NC(=O)OC)C(=O)N1C[Si](C)(C)C[C@H]1c1nc2ccc3cc(-c4ccc(-c5cnc([C@@H]6CCCN6C(=O)[C@@H](NC(=O)OC)C(C)C)[nH]5)cc4)ccc3c2[nH]1` [Compound 59], for which the EC90 in the experiment with HCV 1a Y93H replicon is over 1000 nM; in the experiment on HCV 2b replicon, 245 nM; with HCV 1a replicon, 0.61 nM.
As for `COC(=O)N[C@H](C(=O)N1CCC[C@H]1c1ncc(-c2ccc(-c3ccc4c(ccc5nc([C@@H]6C[Si](C)(C)CN6C(=O)[C@@H](NC(=O)OC)[C@@H](C)OC)[nH]c54)c3)cc2)[nH]1)C(C)C` [Compound 60], the EC90 with HCV 1a Y93H replicon was over 1000 nM; with HCV 2b replicon, 52.8 nM; with HCV 1a replicon, 0.21 nM.
The corresponding values for `COC(=O)N[C@@H](Cc1cccc(O)c1)C(=O)N1C[Si](C)(C)C[C@H]1c1nc2ccc3cc(-c4ccc(-c5cnc([C@@H]6CCCN6C(=O)[C@@H](NC(=O)OC)C(C)C)[nH]5)cc4)ccc3c2[nH]1` [Compound 61] are over 1000 nM, 37 nM and 0.33 nM.
As to `COC(=O)N[C@@H](Cn1ncnn1)C(=O)N1C[Si](C)(C)C[C@H]1c1nc2ccc3cc(-c4ccc(-c5cnc([C@@H]6CCCN6C(=O)[C@@H](NC(=O)OC)C(C)C)[nH]5)cc4)ccc3c2[nH]1` [Compound 62], the concentration for an effect of 90% (EC90) in the experiment on HCV 1a Y93H replicon was over 1000 nM; with HCV 2b replicon it was 91 nM; with HCV 1a replicon, 0.22 nM.
The corresponding values for `COC(=O)N[C@H](C(=O)N1CCC[C@H]1c1ncc(-c2ccc(-c3ccc4c(ccc5nc([C@@H]6C[Si](C)(C)CN6C(=O)[C@H]6COCCN6C(=O)OC)[nH]c54)c3)cc2)[nH]1)C(C)C` [Compound 63] are over 1000 nM, over 1000 nM and 5.1 nM.
For `COC(=O)N[C@H](C(=O)N1CCC[C@H]1c1ncc(-c2ccc(-c3ccc4c(ccc5nc([C@@H]6C[Si](C)(C)CN6C(=O)[C@@H]6COCCN6C(=O)OC)[nH]c54)c3)cc2)[nH]1)C(C)C` [Compound 64], the results for the EC90 in the experiment on HCV 1a Y93H replicon, in the experiment on HCV 2b replicon and with HCV 1a replicon were over 1000 nM, 273 nM and 1.6 nM, respectively.
Regarding `COC(=O)N[C@@H](Cc1cn(C)cn1)C(=O)N1C[Si](C)(C)C[C@H]1c1nc2ccc3cc(-c4ccc(-c5cnc([C@@H]6CCCN6C(=O)[C@@H](NC(=O)OC)C(C)C)[nH]5)cc4)ccc3c2[nH]1` [Compound 65], the concentration for an effect of 90% (EC90) in the experiment with HCV 1a Y93H replicon stood at 564 nM; in the experiment on HCV 2b replicon, 308 nM; with HCV 1a replicon it was 0.36 nM.
The corresponding values for `COC(=O)N[C@@H](Cn1cccn1)C(=O)N1C[Si](C)(C)C[C@H]1c1nc2ccc3cc(-c4ccc(-c5cnc([C@@H]6CCCN6C(=O)[C@@H](NC(=O)OC)C(C)C)[nH]5)cc4)ccc3c2[nH]1` [Compound 66] are over 1000 nM, 321 nM and 0.39 nM.
The corresponding values for `CC[C@H](C)[C@H](NC(=O)OC)C(=O)N1CCC[C@H]1c1ncc(-c2ccc(-c3ccc4c(ccc5nc([C@@H]6C[Si](C)(C)CN6C(=O)[C@@H](NC(=O)OC)C(C)C)[nH]c54)c3)cc2)[nH]1` [Compound 81] are 994 nM, 561 nM and 0.3 nM.
For the molecule `COC(=O)N[C@H](C(=O)N1C[Si](C)(C)C[C@H]1c1nc2ccc3cc(-c4ccc(-c5cnc([C@@H]6CCCN6C(=O)[C@@H](NC(=O)OC)C6CC6)[nH]5)cc4)ccc3c2[nH]1)C(C)C` [Compound 82], the EC90 is 659 nM with HCV 1a Y93H replicon, 154 nM in the experiment with HCV 2b replicon and 0.24 nM with HCV 1a replicon.
The corresponding values for `COC(=O)N[C@@H](CC1CC1)C(=O)N1CCC[C@H]1c1ncc(-c2ccc(-c3ccc4c(ccc5nc([C@@H]6C[Si](C)(C)CN6C(=O)[C@@H](NC(=O)OC)C(C)C)[nH]c54)c3)cc2)[nH]1` [Compound 83] are 528 nM, 406 nM and 0.46 nM.
The corresponding values for `COC(=O)N[C@@H](CC(C)(C)C)C(=O)N1CCC[C@H]1c1ncc(-c2ccc(-c3ccc4c(ccc5nc([C@@H]6C[Si](C)(C)CN6C(=O)[C@@H](NC(=O)OC)C(C)C)[nH]c54)c3)cc2)[nH]1` [Compound 84] are over 1000 nM, 413 nM and 0.92 nM.
For `COC(=O)N[C@H](C(=O)N1C[Si](C)(C)C[C@H]1c1nc2ccc3cc(-c4ccc(-c5cnc([C@@H]6CCCN6C(=O)[C@@H](NC(=O)OC)C6CCCC6)[nH]5)cc4)ccc3c2[nH]1)C(C)C` [Compound 85], the concentration for an effect of 90% (EC90) is over 1000 nM with HCV 1a Y93H replicon, 330 nM with HCV 2b replicon and 0.52 nM in the experiment on HCV 1a replicon.
The corresponding values for `COC(=O)N[C@H](C(=O)N1C[Si](C)(C)C[C@H]1c1nc2ccc3cc(-c4ccc(-c5cnc([C@@H]6CCCN6C(=O)[C@@H](NC(=O)OC)C(C)(C)OC)[nH]5)cc4)ccc3c2[nH]1)C(C)C` [Compound 86] are over 1000 nM, 389 nM and 0.77 nM.
The corresponding values for `COC(=O)N[C@H](C(=O)N1C[Si](C)(C)C[C@H]1c1nc2ccc3cc(-c4ccc(-c5cnc([C@@H]6CCCN6C(=O)[C@@H](NC(=O)OC)[C@@H](C)O)[nH]5)cc4)ccc3c2[nH]1)C(C)C` [Compound 87] are over 1000 nM, 81.7 nM and 0.67 nM.
The corresponding values for `CCN(CC)[C@@H](C(=O)N1CCC[C@H]1c1ncc(-c2ccc(-c3ccc4c(ccc5nc([C@@H]6C[Si](C)(C)CN6C(=O)[C@@H](NC(=O)OC)C(C)C)[nH]c54)c3)cc2)[nH]1)c1ccccc1` [Compound 88] are 500 nM, 10.9 nM and 0.26 nM.
For the molecule `COC(=O)N[C@H](C(=O)N1C[Si](C)(C)C[C@H]1c1nc2ccc3cc(-c4ccc(-c5cnc([C@@H]6CCCN6C(=O)[C@@H](NC(=O)OC)[C@@H](C)OC)[nH]5)cc4)ccc3c2[nH]1)C(C)C` [Compound 89], the values for the EC90 in the experiment on HCV 1a Y93H replicon, in the experiment on HCV 2b replicon and with HCV 1a replicon were over 1000 nM, over 1000 nM and 0.28 nM, respectively.
